Results: patent US20210163489A1, “PYRAZOLOPYRIMIDINE DERIVATIVES AND THE COMPOSITIONS AND METHODS OF TREATMENT REGARDING THE SAME” (NysnoBio Ireland DAC, priority 2016, published 2021)

Test system: S-HeLa stably expressing a YFP-Parkin fusion protein
Experiment: Cell rating experiments: Parkin-dependent induction of mitophagy (Tomm20 immunofluorescence)
Assay type: cell-based
Set-up: key to Cell Ratings [Example 4] (cell activity): +++: >70% effect at 10 μM; ++: 69%-31% effect at 10 μM; +: <30% effect at 10 μM; −: negative at 10 μM
Conditions: 20 h, Tomm20 negative cells, 6 μM CCCP, compound at 10 μM, read-out: Cell Ratings [Example 4] (cell activity)
Experimental: Compounds: All compounds were dissolved in DMSO to a concentration of 25 mM and stored at −20° C. Compound 1 is N,N′-(1-phenyl-1H-1,2,4-triazole-3,5-diyl)dibenzamide.
Cell Culture: S-HeLa stably expressing a YFP-Parkin fusion protein (kindly donated by Prof. Richard J. Youle, Porter Neuroscience Research Center, Bethesda, Md., USA) were utilised to assess Parkin-dependent induction of mitophagy. 4000 cells were seeded in each well of a 96 well plate (Parkin Elmer ViewPlate-96 F TC, cat. N. 6005182) and left to grow for 24 hours.
Subsequently cells were incubated with vehicle (DMSO) or 6 μM CCCP for 1 hour prior to adding increasing concentrations of compound (1, 2.5, 5, 10 μM), each condition run in replicate of five. After 20 hours cells were processed for immunofluorescence.
Immunofluorescence: Samples were fixed in 4% PFA for 25 minutes RT and permeabilized with PBS 0.1% Triton-X100 for 3 minutes on ice, blocked with PBS 3% BSA, 0.3% Triton-X100 for 2 hours RT, followed by overnight incubation with primary antibody at 4° C. ([…] rabbit Tomm20 antibody FL-145; Santa Cruz Biotechnology) diluted in PBS 0.1% BSA, 0.3% Triton-X100. The secondary goat anti-rabbit antibody conjugated with DyLight 649 (Jackson ImmunoResearch) was applied for 1 hour at room temperature at a concentration of […] in conjunction with […] Hoechst33342.
Cells were imaged using an Olympus ScanR automated microscope equipped with motorised stage and 20x APO planar objective. 18 images were acquired for each well using the following combination of excitation/emission filters: Hoechst33342 was excited through a 350/50 nm band pass filter and fluorescence intensity was collected through a 460/30 band pass filter. YFP was excited through a 500/20 nm band pass filter and fluorescence intensity was collected through a 540/35 band pass filter. DyLight 649 was excited through a 640/30 nm band pass filter and fluorescence intensity was collected through 700/75 band pass filter. Images were processed and analysed as described in the Image Analysis section.
Image analysis: Images were processed and analysed using Columbus HCS Analysis software (Version 2.5.0., PerkinElmer) as follows:
Tomm20 fluorescence intensity was corrected using the parabola algorithm. Hoechst 33342 fluorescence was used to identify and count cells. Cells were segmented according to Tomm20 fluorescence intensity. Spot detection was optimized to recognize number and total cellular area of Tomm20 stained clusters (mitochondria).
Tomm20 staining intensity, spot numbers and spot area were used to train a linear classifier algorithm that discriminated between Tomm20 positive (high intensity, spot numbers and spot area) and Tomm20 negative cells (low intensity, spot numbers and spot area).
Bar graphs were generated reporting the number of Tomm20 negative cells expressed as percentage of total cells imaged for each well (FIGS. 3 and 6). Results were shown as mean ±SD of a representative experiment performed in triplicate. +++ indicates >70% effect at 10 μM; ++ indicates 69%-31% effect at 10 μM; + indicates <30% effect at 10 μM; − indicates negative at 10 μM; NA=not available.

SMILES | activation at 10 µM
Cc1nc2c(-c3ccccc3)c(C)nn2c(S)c1Cc1ccncc1 [Compound AA, 2,5-dimethyl-3-phenyl-6-(4-pyridylmethyl)pyrazolo[1,5-a]pyrimidine-7-thiol] | > 70%
Cc1nc2c(-c3ccccc3)cnn2c(S)c1Cc1ccccc1 [Compound CC, 6-benzyl-5-methyl-3-phenyl-pyrazolo[1,5-a]pyrimidin-7-thiol] | > 70%
Cc1cc(S)n2ncc(-c3ccccc3)c2n1 [Compound C] | 31 to 69%
Cc1nn2c(S)c(Cc3ccccc3)cnc2c1-c1ccccc1 [Compound DD, 6-benzyl-2-methyl-3-phenyl-pyrazolo[1,5-a]pyrimidin-7-thiol] | 31 to 69%
COc1ccccc1-c1c(C)nn2c(S)cc(C)nc12 [Compound D] | < 30%
Cc1cc(C)c2c(n1)nn1c(S)cc(C)nc21 [Compound E] | > 70%
CCc1nn2c(S)cc(C)nc2c1-c1ccc(F)cc1 [Compound I] | 31 to 69%
Cc1nn2c(S)c3c(nc2c1-c1ccccc1)CCCC3 [Compound K] | 31 to 69%
Cc1cc(S)n2ncc(-c3ccc(F)cc3)c2n1 [Compound L, 3-(4-fluorophenyl)-5-methylpyrazolo[1,5-a]pyrimidine-7-thiol] | > 70%
Cc1cc2nc(C)c(Cc3ccc(Cl)cc3)c(O)n2n1 [Compound P, 6-[(4-chlorophenyl)methyl]-2,5-dimethyl-pyrazolo[1,5-a]pyrimidin-7-ol] | < 30%
Cc1cc2nc(C)c(Cc3ccc(Cl)cc3)c(S)n2n1 [Compound R, 6-[(4-chlorophenyl)methyl]-2,5-dimethyl-pyrazolo[1,5-a]pyrimidine-7-thiol] | < 30%
Cc1nc2c(-c3ccccc3)cnn2c(O)c1Cc1ccccc1 [Compound U, 6-benzyl-5-methyl-3-phenyl-pyrazolo[1,5-a]pyrimidin-7-ol] | 31 to 69%
Sc1c(Cc2ccccc2)cnc2c(-c3ccccc3)cnn12 [Compound Z, 6-benzyl-3-phenyl-pyrazolo[1,5-a]pyrimidin-7-thiol] | 31 to 69%
Cc1nc2c(-c3ccccn3)c(C)nn2c(O)c1Cc1ccccc1 [FF] | < 30%
Cc1nn2c(O)cc(C(C)(C)C)nc2c1-c1ccc(Cl)cc1 [F] | 31 to 69%
CC(C)(C)c1cc(O)n2ncc(-c3ccccc3)c2n1 [J] | 31 to 69%
Cc1nc2c(C(F)(F)F)c(C)nn2c(S)c1Cc1ccccc1 [LL] | 31 to 69%
Cc1cc2nc(C)c(Cc3ccccc3)c(S)n2n1 [S] | < 30%
Cc1nc2c(-c3ccccc3)c(C)nn2c(O)c1Cc1ccccc1 [T] | < 30%

Same assay, conditions: Tomm20 negative cells, 6 μM CCCP, compound at 10 μM, 20 hours

SMILES | Cell Ratings [Example 4] (cell activity)
Cc1nc2c(-c3ccccc3)c(C)nn2c(S)c1Cc1ccccn1 [Compound BB, 2,5-dimethyl-3-phenyl-6-(2-pyridylmethyl)pyrazolo[1,5-a]pyrimidine-7-thiol] | −
Cc1nc2c(-c3ccncc3)c(C)nn2c(S)c1Cc1ccccc1 [MM] | −

Test system: not listed separately
Experiment: Metabolic stability in human liver microsomes (HLM)
Assay type: in vitro ADME
Conditions: pH 7.4, 1 μM compound, 1.0 mg/mL microsome, NADPH, read-out: HLM t1/2
Experimental: Compounds were also tested for metabolic stability in both rat liver microsomes (RLM) and human liver microsomes (HLM) and their half-life calculated (See Table 6). The assay was performed as follows. The total volume for each incubation was 250 μL. A 100 μM DMSO solution of compound (diluted from 10 mM stock solution) was spiked into 50 mM KH2PO4 (pH 7.4) buffer containing liver microsome at a concentration of 1.0 mg/mL. The reaction was initiated by the addition of 50 μL of 1 mM NADPH. The final concentration of each compound was 1 μM (1% DMSO). The positive controls, phenacetin for CYP1A2, diclofenac for CYP2C9, omeprazole for CYP2C19, dextromethorphan for CYP2D6 and midazolam for CYP3A4 were added to a separate tube with the final substrate concentrations of 1 μM (1% DMSO) for evaluating the enzyme activities in the liver microsomes. At 0, 15, 30 and 60 min, an aliquot of 15 μL reaction mixtures were removed and 200 μL of methanol (with internal standard of 25 ng/mL propranolol) was added to quench the reaction. The resulting mixture was centrifuged and supernatant was used for LC-MS/MS analysis.
The signals for each compound, or the metabolites for the probe substrates and the internal standard were integrated and the peak area ratios to internal standard were generated. Percent parent remaining at a specified timepoint was calculated based on the peak area ratios at time 0 (as 100%) for in vitro metabolic stability studies in liver microsome and hepatocyte. The observed rate constant (kobs) for the metabolism of substrates was calculated by plotting the natural log of percentage substrate remaining versus time of incubation with the slope being kobs. The half-life (T1/2) was calculated according to the following equation: […]

half-life at 1 μM | SMILES
1.05 h | Cc1nc2c(-c3ccccc3)c(C)nn2c(S)c1Cc1ccccc1 [Compound A, 6-benzyl-2,5-dimethyl-3-phenylpyrazolo[1,5-a]pyrimidine-7-thiol]
1.09 h | Cc1nc2c(-c3ccccc3)c(C)nn2c(S)c1Cc1ccncc1 [Compound AA, 2,5-dimethyl-3-phenyl-6-(4-pyridylmethyl)pyrazolo[1,5-a]pyrimidine-7-thiol]
2.57 h | Cc1nn2c(S)c3c(nc2c1-c1ccccc1)CN(C)CC3 [Compound C3]
0.382 h | Cc1nc2c(-c3ccccc3)cnn2c(S)c1Cc1ccccc1 [Compound CC, 6-benzyl-5-methyl-3-phenyl-pyrazolo[1,5-a]pyrimidin-7-thiol]
2.88 h | Cc1cc(C)c2c(n1)nn1c(S)cc(C)nc21 [Compound E]
2.68 h | Cc1cc(S)n2ncc(-c3ccc(F)cc3)c2n1 [Compound L, 3-(4-fluorophenyl)-5-methylpyrazolo[1,5-a]pyrimidine-7-thiol]
0.74 h | COc1ccc(-c2cnn3c(S)cc(C)nc23)cc1 [SS]
0.197 h | Cc1ccc(-c2cnn3c(S)cc(C)nc23)cc1 [TT]
0.55 h | Cc1cc(S)n2ncc(-c3cccc(N(C)C)c3)c2n1 [UU]
